{"source": "PubChem BioAssay AID1320", "about": "(NMMLSC, 2008)", "note": "Activity calls are given as the source filed them. The rule behind the calls is not given here."}
{"biological_target": "Bcl-2-related protein A1 (Homo sapiens) (UniProt Q16548)", "sequence (Q16548 whole entry, looked up)": "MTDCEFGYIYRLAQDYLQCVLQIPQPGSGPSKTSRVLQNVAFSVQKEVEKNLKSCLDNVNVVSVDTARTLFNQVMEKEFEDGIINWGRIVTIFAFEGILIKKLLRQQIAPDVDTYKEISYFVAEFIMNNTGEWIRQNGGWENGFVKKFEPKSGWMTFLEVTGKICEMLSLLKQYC", "assay": "Bfl-1/Bim complex disruptors – biochemical, multiplexed, bead-based flow cytometry, dose response (AID 1320); for percent span (inhibition): test concentration not given here", "settings": "Bim peptide-Bfl-1 binding, fluorescence", "units": {"EC50": "µM"}}
{"smiles": "Cc1c(NC2=C(Cl)C(=O)N(c3ccccc3Cl)C2=O)c(=O)n(-c2ccccc2)n1C", "EC50": 6.04}
{"biological_target": "Bcl-2-related protein A1 (Homo sapiens) (UniProt Q16548)", "assay": "Bfl-1/Bim complex disruptors – biochemical, multiplexed, bead-based flow cytometry, dose response (AID 1320); for percent span (inhibition): test concentration not given here", "settings": "Bim peptide-Bfl-1 binding, fluorescence, hits give high values"}
{"smiles": "C(=C\\c1ccccc1)/CSc1nnc(-c2ccccn2)n1Cc1ccco1", "percent span (inhibition)": "inactive"}
{"smiles": "COc1ccc(CN(CC(=O)NC2CCCC2)C(=O)CCC(=O)Nc2cc(C)on2)cc1", "percent span (inhibition)": "inactive"}
{"smiles": "O=C(O)/C=C/C(=O)NNC(=O)c1ccc(Br)cc1", "percent span (inhibition)": "inactive"}
{"smiles": "O=C(O)c1ccc(NS(=O)(=O)c2ccc3c(c2)C(=O)c2ccccc2C3=O)cc1", "percent span (inhibition)": "inactive"}
{"smiles": "O=C(Nc1ccccn1)c1cc2ccccc2o1", "percent span (inhibition)": "inactive"}
{"smiles": "COc1ccc(Cc2c(O)nc(SC)n(C(C)=O)c2=O)cc1", "percent span (inhibition)": "inactive"}
{"smiles": "Cc1[nH]nc(SCC(=O)NCc2ccc(F)cc2)c1[N+](=O)[O-]", "percent span (inhibition)": "inactive"}
{"smiles": "c1ccc(-c2nc(N3CCCCCC3)c3ccccc3n2)nc1", "percent span (inhibition)": "inactive"}
{"smiles": "N/C(=N\\OC(=O)CCC1CCCC1)c1ccncc1", "percent span (inhibition)": "inactive"}
{"smiles": "CS(=O)(=O)NN1C(=O)c2ccccc2NC1c1cccs1", "note": "(configuration not stated)", "percent span (inhibition)": "inactive"}
{"smiles": "O=C(CSc1ccc2nnc(-c3ccncc3)n2n1)Nc1nccs1", "percent span (inhibition)": "inactive"}
{"smiles": "COc1ccc(COC(=O)NNC(=O)c2ccccc2Cl)cc1", "percent span (inhibition)": "inactive"}
{"smiles": "Cc1cc(N2CCN(C)CC2)nc2ccc(NC(=S)N3CCN(c4cccc(Cl)c4)CC3)cc12", "percent span (inhibition)": "inactive"}
{"smiles": "O=C(/C=C/c1c(F)cccc1Cl)Nc1ccncc1", "percent span (inhibition)": "inactive"}
{"smiles": "O=C(c1cc(=O)c2ccccc2o1)N1CCN(c2ccccc2F)CC1", "percent span (inhibition)": "inactive"}
{"smiles": "COc1ccc(OC)c(Nc2ccc(C(=O)O)cc2[N+](=O)[O-])c1", "percent span (inhibition)": "inactive"}
{"smiles": "CCc1nnc(NS(=O)(=O)c2ccc(N=CC3=C(O)CC(C)(C)CC3=O)cc2)s1", "percent span (inhibition)": "inactive"}
{"smiles": "COc1ccc(C2(NC(C)=O)CCN(C(=O)c3ccco3)CC2)cc1", "percent span (inhibition)": "inactive"}
{"smiles": "CCN1CCN(c2cc(C)c3cc(NC(=S)N4CCN(c5ccccc5)CC4)ccc3n2)CC1", "percent span (inhibition)": "inactive"}
{"smiles": "COc1cccc(/C=N/NC(=O)c2cc3cc([N+](=O)[O-])ccc3s2)c1O", "percent span (inhibition)": "inactive"}
{"smiles": "CCOc1cc(CNc2ccc(N3CCCCC3)cc2)cc(Br)c1OCC(=O)NC(C)(C)C", "percent span (inhibition)": "inactive"}
{"smiles": "Cc1cc(C)n(CC(=O)N/N=C/c2cccc([N+](=O)[O-])c2)n1", "percent span (inhibition)": "inactive"}
{"smiles": "O=C(OCc1nc2ccccc2[nH]1)C12CC3CC(CC(C3)C1)C2", "percent span (inhibition)": "inactive"}
{"smiles": "Cc1ccc(NC(=O)CC2S/C(=N/N=C/c3c[nH]c4ccccc34)NC2=O)cc1", "note": "(configuration not stated)", "percent span (inhibition)": "inactive"}
{"smiles": "Clc1ccc2c(N/N=C/c3ccc(Br)cc3)ccnc2c1", "percent span (inhibition)": "inactive"}
{"smiles": "COc1cc2[nH]c(=S)nc(NCCCOC(C)C)c2cc1OC", "percent span (inhibition)": "inactive"}
{"smiles": "Cc1ccc(N=c2ssnc2Cl)cc1", "percent span (inhibition)": "inactive"}
{"smiles": "CN(C)[C@@H]1C(=O)C(C(=O)NCN2CCCC2)=C(O)[C@@]2(O)C(=O)C3=C(O)c4c(O)cccc4[C@@](C)(O)C3CC12", "note": "(some centres not stated)", "percent span (inhibition)": "inactive"}
{"smiles": "COC(=O)c1cccc(-n2c(C)cc(C=O)c2C)c1", "percent span (inhibition)": "inactive"}
{"smiles": "CCc1ccc(NC(=O)CC2NCCNC2=O)cc1", "note": "(configuration not stated)", "percent span (inhibition)": "inactive"}
{"smiles": "O=C(C1=NN[C@@H]2C(=O)N(c3ccccc3C(F)(F)F)C(=O)[C@H]12)c1ccc2ccccc2n1", "percent span (inhibition)": "inactive"}
{"smiles": "Cc1ccc(SCCC(=O)Nc2ccc(Br)c(C)c2)cc1", "percent span (inhibition)": "inactive"}
{"smiles": "COc1cccc2c(SCC(=O)N/N=C/c3ccc(O)cc3O)cc(C)nc12", "percent span (inhibition)": "inactive"}
{"smiles": "CCOc1ccccc1NC(=O)CSc1ccc2nnc(-c3cccnc3)n2n1", "percent span (inhibition)": "inactive"}
{"smiles": "O=C(COC(=O)c1ccccn1)NC1CCCCC1", "percent span (inhibition)": "inactive"}
{"smiles": "COCCCNc1nc(=S)[nH]c2cc(OC)c(OC)cc12", "percent span (inhibition)": "inactive"}
{"smiles": "CC(=O)c1ccc2c(c1)C1C=CCC1C(c1ccncc1)N2", "note": "(configuration not stated)", "percent span (inhibition)": "inactive"}
{"smiles": "Cc1ccc(C)c(NC(=O)C(=O)NCc2ccccn2)c1", "percent span (inhibition)": "inactive"}
{"smiles": "CCSc1nnc(NC(=O)c2c(-c3ccccc3Cl)noc2C)s1", "percent span (inhibition)": "inactive"}
{"smiles": "Clc1nc2ccccc2cc1/C=N/Nc1nc2ccccc2[nH]1", "percent span (inhibition)": "inactive"}
{"smiles": "Cc1ccc(-c2cc(C(=O)Nc3cccnc3)c3ccccc3n2)o1", "percent span (inhibition)": "inactive"}
{"smiles": "O=C(NCCN1CCOCC1)c1cc(Cl)ccc1[N+](=O)[O-]", "percent span (inhibition)": "inactive"}
{"smiles": "CC(=O)Nc1ccc(NC2=C(Cl)C(=O)c3ccccc3C2=O)cc1", "percent span (inhibition)": "inactive"}
{"smiles": "CCN1CCN(CC(=O)c2c[nH]c3ccc(C)cc23)CC1", "percent span (inhibition)": "inactive"}
{"smiles": "CS(=O)(=O)NN1C(=O)c2ccccc2NC1c1ccccc1", "note": "(configuration not stated)", "percent span (inhibition)": "inactive"}
{"smiles": "Cn1c(=O)c2cc(S(=O)(=O)Nc3cc(C(=O)O)cc(C(=O)O)c3)ccc2n(C)c1=O", "percent span (inhibition)": "inactive"}
{"smiles": "CCN1CCN(c2cc(C)c3cc(NC(=S)N4CC(C)CC(C)C4)ccc3n2)CC1", "note": "(configuration not stated)", "percent span (inhibition)": "inactive"}
{"smiles": "COc1ccc(N2CCN(CCCNC(=O)CCCn3c(=O)[nH]c4ccsc4c3=O)CC2)cc1", "percent span (inhibition)": "inactive"}
{"smiles": "CCCCC(C(=O)OCC)C(N)Cc1ccc(F)cc1", "note": "(configuration not stated)", "percent span (inhibition)": "inactive"}
{"smiles": "CCOc1cc(/C=C2/N=C(C)C(C(=O)OC)=C2O)ccc1O", "percent span (inhibition)": "inactive"}
{"smiles": "CCn1cc(C=C2C(=O)c3ccccc3C2=O)c2ccccc21", "percent span (inhibition)": "inactive"}
{"smiles": "CC(=O)Nc1ccc2nc(CN3CCN(CC(C)C)C(CCO)C3)ccc2c1", "note": "(configuration not stated)", "percent span (inhibition)": "inactive"}
{"smiles": "CNc1ccccc(C(=O)/C=C/c2ccccc2OC)c1=O", "percent span (inhibition)": "inactive"}
{"smiles": "Cc1cc(C)nc(/N=C(\\N)N2CCc3ccccc32)n1", "percent span (inhibition)": "inactive"}
{"smiles": "COc1cccc2c(SCC(=O)N/N=C/c3ccccc3)cc(C)nc12", "percent span (inhibition)": "inactive"}
{"smiles": "O=C(Nc1nnc(SCc2ccccn2)s1)C1CC(=O)N(c2ccccc2)C1", "note": "(configuration not stated)", "percent span (inhibition)": "inactive"}
{"smiles": "COc1ccc(NS(=O)(=O)c2cc(NC(=O)c3ccc(C)o3)ccc2N2CCCCC2)cc1", "percent span (inhibition)": "inactive"}
{"smiles": "COc1ccc(C(=O)Nc2ccc(C(=O)OCC(=O)c3cccc4ccccc34)cc2)cc1", "percent span (inhibition)": "inactive"}
{"smiles": "COc1ccccc1N(C)S(=O)(=O)c1ccc(C(=O)OCC(N)=O)cc1", "percent span (inhibition)": "inactive"}
{"smiles": "CCOCCOc1nc2c(c(=O)n(C)c(=O)n2C)n1CCc1ccccc1", "percent span (inhibition)": "inactive"}
{"smiles": "Cc1ccc(-c2n[nH]c(=S)n2-c2ccccc2)cc1", "percent span (inhibition)": "inactive"}
{"smiles": "CCn1c(C)c(/C=N/Nc2nc3ccccc3s2)c2ccccc21", "percent span (inhibition)": "inactive"}
{"smiles": "CC(=O)NC(=O)Nc1sc(=S)n(C)c1C", "percent span (inhibition)": "inactive"}
{"smiles": "Cc1cnnn1-c1ccc(C(=O)CCl)cc1", "percent span (inhibition)": "inactive"}
{"smiles": "O=C(Cc1ccccc1)OCCNC(=O)c1cccnc1", "percent span (inhibition)": "inactive"}
{"smiles": "Cc1csc(Nc2ccccc2C(F)(F)F)n1", "percent span (inhibition)": "inactive"}
{"smiles": "COc1cccc(-n2nnnc2SCC(=O)Nc2cccc(NC(C)=O)c2)c1", "percent span (inhibition)": "inactive"}
{"smiles": "O=C1c2ccccc2-c2onc3ccc(NCCCn4ccnc4)c1c23", "percent span (inhibition)": "inactive"}
{"smiles": "COc1ccc(C2=Nn3c(nnc3-c3ccccn3)SC2)cc1OC", "percent span (inhibition)": "inactive"}
{"smiles": "COc1ccccc1Cn1nnc2c(=O)[nH]c(C3CCN(C(=O)c4ccc(C)cc4)CC3)nc21", "percent span (inhibition)": "inactive"}
{"smiles": "O=C(NC1=NCCS1)NC12CC3CC(CC(C3)C1)C2", "percent span (inhibition)": "inactive"}
{"smiles": "CCCCCCn1nc(C(=O)Nc2nc3c(s2)CCCC3)c2ccccc2c1=O", "percent span (inhibition)": "inactive"}
{"smiles": "O=C(/C=C/c1ccc(-c2ccccc2[N+](=O)[O-])o1)c1ccc(F)cc1", "percent span (inhibition)": "inactive"}
{"smiles": "Cc1ccc(-c2cc(-c3ccccc3)c(C#N)c(N)n2)o1", "percent span (inhibition)": "inactive"}
{"smiles": "Cc1ccc(S(=O)(=O)N2CCCCC2)cc1NC(=O)COC(=O)c1ccccc1F", "percent span (inhibition)": "inactive"}
{"smiles": "CSc1n[nH]c2nc3c(c(=O)n12)C1(CCCC1)Cc1ccccc1-3", "percent span (inhibition)": "inactive"}
{"smiles": "CCOC(=O)c1cc2c(=O)n3cccc(C)c3nc2n(Cc2ccco2)c1=NC(=O)c1ccccc1", "percent span (inhibition)": "inactive"}
{"smiles": "c1ccc(-c2nc(N3CCCCC3)nc3ccccc23)cc1", "percent span (inhibition)": "inactive"}
{"smiles": "Cc1ccc(N=Cc2c(O)n(-c3ccc4c(c3)OCO4)c(=O)c3ccccc23)cc1", "percent span (inhibition)": "inactive"}
{"smiles": "CCNC(=O)N1c2ccc(OCC)cc2C(C)=CC1(C)C", "percent span (inhibition)": "inactive"}
{"smiles": "Cc1sc2nc(C(C)C)nc(SCC(=O)N3c4ccccc4CC3C)c2c1C", "note": "(configuration not stated)", "percent span (inhibition)": "inactive"}
{"smiles": "Cc1ccc(C)n1-c1cccc(C(=O)O)c1", "percent span (inhibition)": "inactive"}
{"smiles": "O=C(C1CCC(Cn2c(=S)[nH]c3ccccc3c2=O)CC1)N1CCN(c2ccccn2)CC1", "note": "(configuration not stated)", "percent span (inhibition)": "inactive"}
{"smiles": "Cn1c(N)c(C(=O)COC(=O)c2cc(-c3ccco3)nc3ccccc23)c(=O)n(C)c1=O", "percent span (inhibition)": "inactive"}
{"smiles": "CCOc1ncccc1C(=O)OC(C)C(=O)Nc1ccc(CC)cc1", "note": "(configuration not stated)", "percent span (inhibition)": "inactive"}
{"smiles": "Cc1ccc2c(C)c(C(=O)Nc3nnc(C)s3)oc2c1", "percent span (inhibition)": "inactive"}
